# Assay results published in patent publication US20080188449A1, “Treatment of Conditions Caused By Calcium Abnormalities” (priority 2004, published 2008).
# Tests used:
# [1] = system: Pkd2^+/− murine cell line; assay: Viability of Pkd2^+/− cells; assay type: cell-based; settings: 100 nM
# Protocol: Calcium response to triptolide was, thus, shown to be dependent on polycystin-2. The biological response to calcium flux was next assessed in the murine Pkd1^−/− cell line, by adding 100 nM triptolide to the cultured cells and observing cell growth over time. Within the first 24 hours of culture, a minimal number of detached cells was observed. […] In the absence of triptolide, this cell line underwent a population doubling every 48 hours. […] It is possible that additional signaling pathways are activated by triptolide when Pkd1 is expressed. […] Therefore, Applicants assessed whether the inhibition of proliferation observed was due to p21 re-expression upon triptolide treatment.
# The Pkd1^−/−(MN24), Pkd2^+/−(3B3) and Pkd2^−/−(2D2) murine cell lines were derived from knockout and transgenic mice as previously reported (Wu, et al., 1998, Cell, 93:177-88; Wu, et al., 2000, Nat. Genet, 24:75-8; Wu, et al., 2002, Hum Mol Genet, 11:1845-54). The PKD2-Rex cell line was made by stable integration of untagged PKD2 under hygromycin selection. Antibodies used included polycystin-2 (Cai, et al. 1999, J Biol Chem, 274:28557-65), cleaved (active) caspase-3 (Cell Signaling Technology) and p21 (BD Biosciences). Triptolide was obtained from Sinobest Inc. (China) and purity was 99% as determined by HPLC. DMSO was used to dissolve triptolide and was then directly added into culture media for all experiments. […]
# [2] = system: Pkd1^−/− murine model of polycystic kidney disease; assay: Pkd1^−/− murine model of polycystic kidney disease, treatment during gestation; assay type: in vivo, mice
# Protocol: Following successful Pkd1^+/−/Pkd1^+/− matings, 0.07 mg/kg/day of triptolide or DMSO control was injected i.p. into pregnant mice until they gave birth. All pups were assessed for viability, length, developmental staging, and wet kidney weight. A total of 59 pups from DMSO treated females and 100 pups from triptolide treated females were examined for multiple parameters, such as genotypic distribution, developmental stage at time of birth, and average kidney weights (Table 1). […] Approximately 20% of all Pkd1^−/− mice were born alive from each treatment group. However, severe edematous abnormalities were obvious upon necropsy.
# As per approved IACUC animal protocol, Pkd1^+/−/Pkd1^+/− mice were mated and pregnant mice were divided into control (DMSO) or experimental (triptolide) groups. A total volume of 100 μl of PBS with no more than 5% DMSO or DMSO/0.07 mg/kg/day triptolide was injected i.p. with a 28 G ½ insulin syringe. Mice were weighed and injected starting at E10.5 until birth. All pups were examined for length and developmental staging such as whisker formation. Kidneys were harvested, weighed, and fixed in 4% paraformaldehyde before histological preparation.
# Kidneys were prepared by sagittal cross-sectioning and hematoxylin and eosin staining. All kidneys were photographed under the same magnification (4×) and cystic burden was computed using Image J analysis software (NIH). The area of cysts within the total area of the kidney (pixels) was calculated as a final percentage of cystic burden in the kidney. Immunohistochemical analysis of active caspase-3 was completed as per manufacturer's protocol.
# NFκB transactivation = assay: κB-luciferase reporter assay (TNF-α induced); assay type: cell-based
# Protocol: Having established that triptolide induced cell death is dependent upon free calcium concentration, Applicants next determined if this was also a requirement for the inhibition of NFκB transcription. HeLa cells were transiently transfected with the κB-luciferase reporter construct for 8 hours before being washed and then cultured in the presence or absence of calcium containing medium for 16 hours. Triptolide (100 nM) was pre-incubated with cells for 1 hour before addition of 15 ng/ml of TNF-α for 4 hours.
# As an additional experiment, transcriptional activity was also assessed by site-directed calcium buffering. HeLa cells were co-transfected with the κB-luciferase plasmid as well as one of the following constructs: GFP empty vector, NES-PV-GFP, or NLS-PV-GFP and proper GFP localization was confirmed. Cells were grown in the presence of calcium for 24 hours before the addition of 100 nM triptolide and 15 ng/ml TNF-α.
# NFκB transactivation was examined using the κb-luciferase reporter construct. HeLa cells were transiently transfected and pre-treated with 0-100 nM triptolide for one hour prior to TNF-α addition. Cells were assessed for NFκB driven luciferase expression after an additional five hours of incubation, at which time TNF-α had induced transcriptional activity by approximately 15-fold in control cells. […] The results thus far support a divergence of triptolide-mediated functions: the pathway regulating growth arrest/death is more sensitive to triptolide and calcium than the mechanism leading to transcriptional repression of NFκB.
# Based upon Applicants' studies examining the concentration dependent effect of triptolide on the two measured biological endpoints, cell death and transcriptional repression, Applicants wanted to determine how modulating triptolide's structure may also discriminate between the two pathways. For cell viability assays, HeLa cells were incubated with 0, 0.1, 1, or 10 μM of each analog or triptolide for 24 hours and then counted using trypan blue dye exclusion. […] NFκB transcriptional inhibition was measured using the κB-luciferase assay as previously described following 5 hours of incubation with each analog (0-10 μM) and TNF-α addition.
# A triple κB promoter-Luciferase reporter construct was a gift of Sankar Ghosh (Yale University). HeLa cells were plated at a density of 2×10^5 in 12 well plates and transfected with 100 ng of the κB-Luciferase plasmid plus Lipofectamine 2000 (Invitrogen) for 24 hours before the addition of 100 nM triptolide for one hour and 15 ng/ml of recombinant (human) TNF-α (Roche) for an additional five hours. The transfection efficiency of HeLa was determined to be 80-90%, and all samples were normalized to protein concentration. Luciferase assays were performed using the Firefly luciferase kit as per manufacturer's protocol (Promega) and results obtained on the Wallac Victor2 1420 Multilabel Counter (Perkin Elmer).
# [3] = 0.07 mg/kg/day i.p. to pregnant mice, E10.5 until birth
smiles,measurement,setting,value
"CC(C)[C@]12O[C@H]1[C@@H]1O[C@]13[C@]1(O[C@H]1C[C@H]1C4=C(CC[C@@]13C)C(=O)OC4)[C@@H]2O [triptolide, Triptolide]",cell death,[1],rapid cell death within 24 hours
same,Alive Pkd1^−/− (birth) (number),[2]; [3],4
same,Alive Pkd1^−/− (birth) (percent),[2]; [3],Approximately 20%
same,Alive Pkd1^−/− (birth) (percent),"[2]; 0.07 mg/kg/day i.p. to pregnant mice, E10.5 until birth, listed as Triptolide",22%
same,diameter of cyst lumens on average,[2]; Pkd1^−/− kidneys,smaller
same,active caspase-3 immunoreactivity in kidney sections,"[2]; Pkd1^−/− kidneys, IHC",did not show any significant activation of the caspase pathway
same,kidney morphology,"[2]; mouse, in vivo",normal morphology
same,TNF-α driven transcriptional activity of NFκB,"NFκB transactivation; 10 nM, 6 hours",did not inhibit
same,TNF-α driven transcriptional activity of NFκB,"NFκB transactivation; 25 nM, 6 hours",did not inhibit
same,suppression of NFκB transcriptional activity,"NFκB transactivation; 50 nM, 6 hours",20%
same,inhibition at 0.1 µM,"NFκB transactivation; 0.1 μM, 5 hours with TNF-α, analog study",> 60%
same,inhibition of NFκB transcriptional activity,"NFκB transactivation; 100 nM, 6 hours, average",60%
same,NFκB transactivation,"NFκB transactivation; 100 nM, GFP vector, NES-PV-GFP or NLS-PV-GFP co-transfected",retained the ability to suppress NFκB transactivation in all experimental conditions
same,TNF-α induced NFκB transactivation,"NFκB transactivation; 100 nM, presence and absence of calcium",effectively inhibited
same,NFκB transcriptional activity at higher concentration,"NFκB transactivation; 1 or 10 μM, 5 hours",attenuated further
